Measurements published in ChEMBL document CHEMBL3351877, “Synthesis and identification of α-cyano bis(indolyl)chalcones as novel anticancer agents” (Bioorg Med Chem Lett, 2014).
Activity calls are given as the source filed them. The calls are words filed in the database; no cut-off is given here.

What was measured:
A549 [1] = test: Cytotoxicity against human A549 cells assessed as reduction in cell viability after 24 hrs by WST8 assay; format: functional, cell-based; settings: A549, 24 h
A549 [2] = test: Cytotoxicity against human A549 cells assessed as reduction in cell viability after 48 hrs by WST8 assay; format: functional, cell-based; settings: A549, 48 h
[3] = Cytotoxicity against human PC3 cells assessed as reduction in cell viability after 24 hrs by WST8 assay; format: functional, cell-based; settings: PC-3, 24 h
[4] = Cytotoxicity against human PC3 cells assessed as reduction in cell viability after 48 hrs by WST8 assay; format: functional, cell-based; settings: PC-3, 48 h
[5] = Cytotoxicity against human MIAPaCa2 cells assessed as reduction in cell viability after 24 hrs by WST8 assay; format: functional, cell-based; settings: MIA PaCa-2, 24 h
[6] = Cytotoxicity against human MIAPaCa2 cells assessed as reduction in cell viability after 48 hrs by WST8 assay; format: functional, cell-based; settings: MIA PaCa-2, 48 h
Tubulin (Sus scrofa) = Tubulin (Sus scrofa) (UniProt P02554+P02550); test: Induction of porcine brain tubulin polymerization at 5 uM incubated for 10 to 40 mins by spectrophotometry
Chain of Tubulin (Sus scrofa) (P02550 whole entry, looked up): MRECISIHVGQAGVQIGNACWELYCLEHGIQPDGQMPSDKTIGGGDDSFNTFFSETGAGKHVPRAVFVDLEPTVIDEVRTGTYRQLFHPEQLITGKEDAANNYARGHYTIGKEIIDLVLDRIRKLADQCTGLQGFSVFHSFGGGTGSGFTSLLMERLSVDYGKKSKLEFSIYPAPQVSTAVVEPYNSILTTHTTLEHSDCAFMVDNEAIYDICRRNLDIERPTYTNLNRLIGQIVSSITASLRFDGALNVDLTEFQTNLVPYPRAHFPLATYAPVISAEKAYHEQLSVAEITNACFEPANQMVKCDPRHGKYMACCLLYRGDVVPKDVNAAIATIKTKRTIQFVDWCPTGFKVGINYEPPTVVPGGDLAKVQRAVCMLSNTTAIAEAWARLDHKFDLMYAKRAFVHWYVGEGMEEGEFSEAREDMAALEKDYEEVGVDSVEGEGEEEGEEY
Chain of Tubulin (Sus scrofa) (P02554 whole entry, looked up): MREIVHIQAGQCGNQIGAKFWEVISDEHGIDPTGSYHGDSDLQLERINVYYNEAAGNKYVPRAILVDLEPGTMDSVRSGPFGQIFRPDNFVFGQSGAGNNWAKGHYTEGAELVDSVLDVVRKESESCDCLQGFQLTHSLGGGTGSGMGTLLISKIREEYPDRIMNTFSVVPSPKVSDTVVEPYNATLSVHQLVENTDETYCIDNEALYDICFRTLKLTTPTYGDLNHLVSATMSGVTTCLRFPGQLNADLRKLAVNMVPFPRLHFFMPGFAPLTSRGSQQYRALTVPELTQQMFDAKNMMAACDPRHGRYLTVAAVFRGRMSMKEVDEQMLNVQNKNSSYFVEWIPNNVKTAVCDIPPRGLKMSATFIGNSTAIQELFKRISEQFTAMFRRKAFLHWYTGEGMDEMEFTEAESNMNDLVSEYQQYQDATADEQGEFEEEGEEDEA

Structure (SMILES): COc1ccc2c(C(=O)/C(C#N)=C/c3c[nH]c4cc(F)ccc34)c[nH]c2c1
- IC50 (A549 [1]): 2.4 µM
- IC50 (A549 [2]): 0.8 µM
- IC50 [3]: 36 µM
- IC50 [4]: 22.5 µM
- IC50 [5]: > 50 µM
- IC50 [6]: > 50 µM

Structure (SMILES): COc1ccc2[nH]cc(C(=O)/C(C#N)=C/c3c[nH]c4cc(F)ccc34)c2c1
- IC50 (A549 [1]): > 50 µM
- IC50 (A549 [2]): > 50 µM
- IC50 [3]: > 50 µM
- IC50 [4]: > 50 µM
- IC50 [5]: > 50 µM
- IC50 [6]: > 50 µM

Structure (SMILES): N#C/C(=C\c1cn(Cc2ccc(Cl)cc2)c2ccc(Br)cc12)C(=O)c1c[nH]c2ccccc12
- IC50 (A549 [1]): 14 µM
- IC50 (A549 [2]): 24.9 µM
- IC50 [3]: 47.1 µM
- IC50 [4]: 36.5 µM
- IC50 [5]: 37.7 µM
- IC50 [6]: > 50 µM

Structure (SMILES): N#C/C(=C\c1c[nH]c2cc(F)ccc12)C(=O)c1c[nH]c2cc(F)ccc12
- IC50 (A549 [1]): > 50 µM
- IC50 (A549 [2]): 36.1 µM
- IC50 [3]: > 50 µM
- IC50 [4]: > 50 µM
- IC50 [5]: > 50 µM
- IC50 [6]: > 50 µM

Structure (SMILES): N#C/C(=C\c1cn(Cc2ccc(Cl)cc2)c2ccccc12)C(=O)c1c[nH]c2cc(F)ccc12
- IC50 (A549 [1]): > 50 µM
- IC50 (A549 [2]): > 50 µM
- IC50 [3]: > 50 µM
- IC50 [4]: > 50 µM
- IC50 [5]: > 50 µM
- IC50 [6]: 16.6 µM

Structure (SMILES): N#C/C(=C\c1c[nH]c2ccccc12)C(=O)c1c[nH]c2ccccc12
- IC50 (A549 [1]): 16.1 µM
- IC50 (A549 [2]): 22 µM
- IC50 [3]: > 50 µM
- IC50 [4]: > 50 µM
- IC50 [5]: 17.9 µM
- IC50 [6]: 36.8 µM

Structure (SMILES): COc1ccc2[nH]cc(/C=C(\C#N)C(=O)c3c[nH]c4ccccc34)c2c1
- IC50 (A549 [1]): 6.6 µM
- IC50 (A549 [2]): 13.7 µM
- IC50 [3]: 33.2 µM
- IC50 [4]: 30.5 µM
- IC50 [5]: 21.2 µM
- IC50 [6]: 25.1 µM

Structure (SMILES): COc1ccc(Cn2cc(/C=C(\C#N)C(=O)c3c[nH]c4cc(OC)ccc34)c3ccccc32)cc1
- IC50 (A549 [1]): 37.4 µM
- IC50 (A549 [2]): 28.9 µM
- IC50 [3]: > 50 µM
- IC50 [4]: > 50 µM
- IC50 [5]: > 50 µM
- IC50 [6]: > 50 µM
- Activity (Tubulin (Sus scrofa)): Active

Structure (SMILES): COc1ccc2c(C(=O)/C(C#N)=C/c3c[nH]c4ccccc34)c[nH]c2c1
- IC50 (A549 [1]): 6.4 µM
- IC50 (A549 [2]): 7.5 µM
- IC50 [3]: > 50 µM
- IC50 [4]: 12 µM
- IC50 [5]: 13.5 µM
- IC50 [6]: > 50 µM
- Activity (Tubulin (Sus scrofa)): Active

Structure (SMILES): COc1ccc2c(/C=C(\C#N)C(=O)c3c[nH]c4cc(OC)ccc34)c[nH]c2c1
- IC50 (A549 [1]): 1.9 µM
- IC50 (A549 [2]): 1.7 µM
- IC50 [3]: > 50 µM
- IC50 [4]: 27 µM
- IC50 [5]: > 50 µM
- IC50 [6]: > 50 µM
- Activity (Tubulin (Sus scrofa)): Active

Structure (SMILES): COc1ccc2c(C(=O)/C(C#N)=C/c3cn(Cc4ccc(Cl)cc4)c4ccccc34)c[nH]c2c1
- IC50 (A549 [1]): > 50 µM
- IC50 (A549 [2]): > 50 µM
- IC50 [3]: > 50 µM
- IC50 [4]: > 50 µM
- IC50 [5]: > 50 µM
- IC50 [6]: 40.4 µM

Structure (SMILES): N#C/C(=C\c1c[nH]c2cc(F)ccc12)C(=O)c1c[nH]c2ccccc12
- IC50 (A549 [1]): 17 µM
- IC50 (A549 [2]): 22.7 µM
- IC50 [3]: > 50 µM
- IC50 [4]: > 50 µM
- IC50 [5]: 23.5 µM
- IC50 [6]: 31.6 µM

Structure (SMILES): COc1ccc(Cn2cc(/C=C(\C#N)C(=O)c3c[nH]c4ccccc34)c3ccccc32)cc1
- IC50 (A549 [1]): > 50 µM
- IC50 (A549 [2]): > 50 µM
- IC50 [3]: > 50 µM
- IC50 [4]: > 50 µM
- IC50 [5]: > 50 µM
- IC50 [6]: > 50 µM

Structure (SMILES): N#C/C(=C\c1c[nH]c2ccc(Br)cc12)C(=O)c1c[nH]c2ccc(Br)cc12
- IC50 (A549 [1]): > 50 µM
- IC50 (A549 [2]): > 50 µM
- IC50 [3]: > 50 µM
- IC50 [4]: > 50 µM
- IC50 [5]: > 50 µM
- IC50 [6]: > 50 µM

Structure (SMILES): N#C/C(=C\c1cn(Cc2ccc(Cl)cc2)c2ccccc12)C(=O)c1c[nH]c2ccccc12
- IC50 (A549 [1]): > 50 µM
- IC50 (A549 [2]): > 50 µM
- IC50 [3]: > 50 µM
- IC50 [4]: > 50 µM
- IC50 [5]: > 50 µM
- IC50 [6]: > 50 µM

Structure (SMILES): COc1ccc2c(/C=C(\C#N)C(=O)c3c[nH]c4ccccc34)c[nH]c2c1
- IC50 (A549 [1]): 9.6 µM
- IC50 (A549 [2]): 5.8 µM
- IC50 [3]: 33.3 µM
- IC50 [4]: 12.5 µM
- IC50 [5]: 27.5 µM
- IC50 [6]: > 50 µM

Structure (SMILES): COc1ccc2[nH]cc(/C=C(\C#N)C(=O)c3c[nH]c4ccc(OC)cc34)c2c1
- IC50 (A549 [1]): > 50 µM
- IC50 (A549 [2]): 24.5 µM
- IC50 [3]: > 50 µM
- IC50 [4]: > 50 µM
- IC50 [5]: 28.5 µM
- IC50 [6]: > 50 µM

Structure (SMILES): Cn1cc(/C=C(\C#N)C(=O)c2c[nH]c3ccccc23)c2ccccc21
- IC50 (A549 [1]): 27.9 µM
- IC50 (A549 [2]): > 50 µM
- IC50 [3]: > 50 µM
- IC50 [4]: > 50 µM
- IC50 [5]: 31.6 µM
- IC50 [6]: > 50 µM

Structure (SMILES): CO[C@@]12[C@H](COC(N)=O)C3=C(C(=O)C(C)=C(N)C3=O)N1C[C@@H]1N[C@@H]12 [MITOMYCIN]
- IC50 (A549 [1]): 0.45 µM

Structure (SMILES): COc1ccc2c(/C=C(\C#N)C(=O)c3c[nH]c4cc(F)ccc34)c[nH]c2c1
- IC50 (A549 [1]): 10.3 µM
- IC50 (A549 [2]): 5.5 µM
- IC50 [3]: > 50 µM
- IC50 [4]: 21.4 µM
- IC50 [5]: > 50 µM
- IC50 [6]: > 50 µM

Structure (SMILES): COc1ccc2c(C(=O)/C(C#N)=C/c3c[nH]c4ccc(OC)cc34)c[nH]c2c1
- IC50 (A549 [1]): 3.7 µM
- IC50 (A549 [2]): 5.5 µM
- IC50 [3]: 31.1 µM
- IC50 [4]: 37.1 µM
- IC50 [5]: > 50 µM
- IC50 [6]: > 50 µM

Structure (SMILES): COc1ccc(-c2[nH]c3ccccc3c2/C=C(\C#N)C(=O)c2c[nH]c3ccccc23)cc1
- IC50 (A549 [1]): 4.9 µM
- IC50 (A549 [2]): 3 µM
- IC50 [3]: 17.2 µM
- IC50 [4]: 8.1 µM
- IC50 [5]: 24 µM
- IC50 [6]: > 50 µM

Structure (SMILES): COc1ccc2[nH]cc(/C=C(\C#N)C(=O)c3c[nH]c4cc(F)ccc34)c2c1
- IC50 (A549 [1]): 18 µM
- IC50 (A549 [2]): 26.3 µM
- IC50 [3]: > 50 µM
- IC50 [4]: > 50 µM
- IC50 [5]: > 50 µM
- IC50 [6]: > 50 µM

Structure (SMILES): COc1ccc(Cn2cc(/C=C(\C#N)C(=O)c3c[nH]c4cc(F)ccc34)c3ccccc32)cc1
- IC50 (A549 [1]): > 50 µM
- IC50 (A549 [2]): 36.3 µM
- IC50 [3]: > 50 µM
- IC50 [4]: > 50 µM
- IC50 [5]: > 50 µM
- IC50 [6]: 29.4 µM
